Results from PubChem BioAssay AID1996.
Converted amounts (≈) assume the structure as drawn.

conditions: buffer; pH 7.4; 200.0 µM

Structure (SMILES) | solubility kinetic
O=C(NCCOCc1ccccc1)C(c1ccccc1)c1ccccc1 | 23.3 µg/mL (≈ 67.4 µM)
C=CCOc1ccccc1CN1CCC(Cc2ccccc2)CC1 | 31.7 µg/mL (≈ 98.6 µM)
Clc1ccc(Nc2ccc3ccccc3n2)cc1 | < 0.3 µg/mL
COc1ccc(CN2CCSCC2)c(OC)c1C | 26.4 µg/mL (≈ 98.7 µM)
O=C(Nc1ccc(F)cc1F)N1CCCCCC1 | > 38.1 µg/mL
Cc1ccc(C2CN(C)CC2C(=O)c2ccc(F)cc2)cc1 (stereo not given) | 35.8 µg/mL (≈ 120 µM)
Cc1nc(S(=O)(=O)Nc2ccc3c(c2)OCCO3)cn1C | 13.1 µg/mL (≈ 42.3 µM)
Cc1cccc2nc3ccccc3cc12 | 6.8 µg/mL (≈ 35.2 µM)
FC(F)(F)c1ccccc1CNCc1ccncc1 | 29.4 µg/mL (≈ 110 µM)
COc1ccc(-c2nc3ccc(C)cc3c(=O)o2)cc1OC | < 0.6 µg/mL
O=S(=O)(c1ccc(Cl)cc1)N1CCN(c2ccccn2)CC1 | 0.5 µg/mL (≈ 1.48 µM)
Nc1cccc(C(=O)NCCNC(=O)c2cccc(N)c2)c1 | > 44.8 µg/mL
N#C/C(=C\c1c(F)cccc1Cl)C(=O)NC1CC1 | > 39.7 µg/mL
O=C(Oc1cc(Cl)cc(Cl)c1)c1cnc2n(c1=O)CCS2 | 43.9 µg/mL (≈ 128 µM)
COc1ccc(-c2noc(=O)n2Cc2ccccc2F)cc1 | 29.6 µg/mL (≈ 98.6 µM)
C/C(=N/OC(=O)c1ccc(C)cc1)C(=O)c1ccc(Br)cc1 | 33.9 µg/mL (≈ 94.1 µM)
O=C1CSC(c2cccnc2)N1Cc1ccc(Cl)cc1Cl (stereo not given) | > 50.9 µg/mL
O=[N+]([O-])c1c(NCCCO)cc(N2CCCCCC2)c2nonc12 | 28.6 µg/mL (≈ 85.3 µM)
Cc1ccc(S(=O)(=O)N2CC(=O)NC(=O)C2)cc1 | > 40.2 µg/mL
CC(=O)Nc1ccc(NS(=O)(=O)c2ccc(C)cc2)cc1[N+](=O)[O-] | > 52.4 µg/mL
N#CC(C#N)=Cc1cnc(N2CCN(c3ccccc3)CC2)s1 | < 0.1 µg/mL

Structure (SMILES) | solubility kinetic
COc1ccc(/C=N/NC(=O)c2ccc[nH]2)cc1 | > 36.5 µg/mL
O=C(NCc1ccco1)c1nn2cccnc2c1Cl | > 41.5 µg/mL
CN(CC(=O)N1CCOCC1)S(=O)(=O)c1ccc2ccccc2c1 | > 52.3 µg/mL
O=C(Nc1ccc(F)cc1)c1ccccc1NC(=O)C1CC=CCC1C(=O)O (stereo not given) | > 57.4 µg/mL
Cc1nc2ccc(NC(=S)N3CCCC3)cc2nc1C | 41.7 µg/mL (≈ 146 µM)
O=C(CC1OC(=O)c2ccccc21)Nc1cc(Cl)ccc1N1CCOCC1 (stereo not given) | 5.8 µg/mL (≈ 15 µM)
O=C(O)Cn1c(=O)n(Cc2ccccc2)c2ccccc21 | > 42.3 µg/mL
NC(=O)CN1C(=O)NC(c2ccccc2)(c2ccccc2)C1=O | > 46.4 µg/mL
Cc1ccc(S(=O)(=O)N2CCOCC2)cc1C(=O)NCCc1ccc(Cl)cc1 | 26 µg/mL (≈ 61.5 µM)
COc1ccc(Br)cc1CN(C)CC(=O)Nc1cccc(S(=O)(=O)N2CCCC2)c1.O=C(O)C(=O)O | 12.9 µg/mL
c1ccc2c(c1)NCC1CCCN21 (stereo not given) | 12.7 µg/mL (≈ 72.9 µM)
Cc1cc(Nc2ccc(C(=O)O)cc2)nc(N)n1 | 28 µg/mL (≈ 115 µM)
Cc1ccc2c(c1)C1C3CCC(C3)C1S(=O)N2 (stereo not given) | > 37.1 µg/mL
COc1ccc(S(=O)(=O)NCc2cccnc2)cc1C | > 43.9 µg/mL
Cc1oc(S(=O)(=O)N2CCOCC2)cc1C(=O)Nc1ccc(F)cc1 | 5.4 µg/mL (≈ 14.7 µM)
Nc1ccccc1Nc1nc2ccccc2[nH]1 | > 33.6 µg/mL
CN(c1ccccc1)S(=O)(=O)c1ccc(C(=O)N2CCN(c3ccccc3Cl)CC2)cc1 | 6.8 µg/mL (≈ 14.5 µM)
Cc1ccc(N2C(=O)C3C4C=CC(CC4)C3C2=O)cc1Br (stereo not given) | < 0.7 µg/mL
N/C(=N\OC(=O)c1ccc([N+](=O)[O-])cc1)c1ccccn1 | 3.2 µg/mL (≈ 11.2 µM)
Cc1ccc(-c2nc3ccccc3nc2-c2ccccc2)cc1 | 1 µg/mL (≈ 3.37 µM)
CN(C)C(=O)c1cc(C(=O)c2ccc(Cl)cc2Cl)c[nH]1 | 23.4 µg/mL (≈ 75.2 µM)

Structure (SMILES) | solubility kinetic
COc1ccccc1C1CCN(C(=O)c2ccc(C(C)(C)C)cc2)CC1 | 3.1 µg/mL (≈ 8.82 µM)
O=C(OCC(=O)N1CCc2ccccc2C1)c1c(F)cccc1Cl | 31.8 µg/mL (≈ 91.4 µM)
COc1cc2ccccc2cc1C(=O)NC1CCCC1 | > 40.4 µg/mL
Cc1ccc(C(=O)c2cc3c(cc2[N+](=O)[O-])OCCO3)cc1 | 8 µg/mL (≈ 26.7 µM)
O=C(Nc1ccccc1)N1CCCN(c2c(Cl)cncc2Cl)CC1 | 10.9 µg/mL (≈ 29.8 µM)
O=C(c1ccc(Cl)cc1Cl)N1CCc2ccccc21 | 13.9 µg/mL (≈ 47.6 µM)
O=C(NCC(c1ccco1)N1CCc2ccccc21)c1cccc(F)c1 (stereo not given) | 16.3 µg/mL (≈ 46.5 µM)
Cc1ccc(NC(=S)NC(=O)C2CC2)cc1Cl | 2.9 µg/mL (≈ 10.8 µM)
Cc1ccc(C(=O)N2CC=C(c3ccccc3)CC2)o1 | 39.1 µg/mL (≈ 146 µM)
Nc1ccccc1SC/C=C/CSc1ccccc1N | 12.8 µg/mL (≈ 42.3 µM)
Fc1ccc2c(c1)C1OCCCC1C(c1ccccc1)N2 (stereo not given) | < 0.6 µg/mL
CS(=O)(=O)N(CC(=O)NC1CCCC1)C1CCCCC1 | > 45.4 µg/mL
Nc1nccnc1C(=O)OCC(=O)NC1CCCc2ccccc21 (stereo not given) | 44.5 µg/mL (≈ 136 µM)
O=C(Nc1ccncc1)Nc1ccncc1 | > 32.1 µg/mL
CN(C(=O)CSc1ncnc2ccccc12)C1CCCCC1 | 45.4 µg/mL (≈ 144 µM)
O=C1C(Nc2ccccc2)=CC(c2ccc(O)cc2)N1c1ccccc1 (stereo not given) | 2 µg/mL (≈ 5.84 µM)
C=C(c1ccccc1C)[n+]1ccccc1 | 22.1 µg/mL
CCc1nc(Nc2cccc(F)c2)c2oc3ccccc3c2n1.Cl | < 0.2 µg/mL
COc1ccc(CCC(C)NC2CCCCCCC2)cc1 (stereo not given) | 41.8 µg/mL (≈ 144 µM)
CCN(c1ccccc1)S(=O)(=O)c1ccc2c(c1)OCCO2 | 26.3 µg/mL (≈ 82.3 µM)

Results, then the compound that gave them:

solubility kinetic | Structure (SMILES)
30.7 µg/mL (≈ 147 µM) | Cc1ccc(NC(=O)CC(N)=S)cc1
> 69.2 µg/mL | COCCn1c(N)c(N(Cc2ccccc2)C(=O)c2cc(=O)[nH]c3ccccc23)c(=O)[nH]c1=O
11.8 µg/mL (≈ 37.2 µM) | Cc1ccc(CNC(=O)CCSCc2ccccc2F)cc1
4.1 µg/mL (≈ 11.3 µM) | COCCSc1ccccc1C(=O)Nc1cc([N+](=O)[O-])ccc1OC
> 44.3 µg/mL | Cc1nc(SCC(=O)N2CCCCCC2)[nH]c(=O)c1C
30 µg/mL | CC#CC[N+](C)(CC#CC)CC(=O)c1ccccc1.[Br-]
> 42.8 µg/mL | CCCN(CCC)S(=O)(=O)c1ccc(C(=O)O)cc1
1.6 µg/mL (≈ 4.23 µM) | COc1ccccc1NC(=O)Nc1nc2ccc(S(N)(=O)=O)cc2s1
> 60.2 µg/mL | CCc1ccc(NC(=O)C(C)OC(=O)Cc2cc(OC)c(OC)c(OC)c2)cc1 (stereo not given)
28.4 µg/mL (≈ 86.5 µM) | O=C(COC(=O)c1cc(Cl)cc(Cl)c1)NCc1ccco1
> 40.1 µg/mL | CN1CCN(C(=O)CNC(=O)c2cccs2)CC1
3.9 µg/mL (≈ 12.4 µM) | Cc1cc(C)c(O)c(NC(=S)NC(=O)Cc2ccccc2)c1
> 44.9 µg/mL | O=C1NC(=O)C(Cc2cccc(Oc3ccccc3)c2)S1 (stereo not given)
> 58.1 µg/mL | Cc1cc(=O)oc2c(C)c(OCC(=O)NCC3CCC(C(=O)O)CC3)ccc12 (stereo not given)
> 50.4 µg/mL | O=C(CSCc1ccccc1Cl)Nc1ccc(C(=O)O)cc1
3.9 µg/mL (≈ 13.7 µM) | O=C(COc1ccc2ccccc2c1)Nc1nccs1
0.5 µg/mL (≈ 1.56 µM) | CCc1nonc1NC(=O)c1oc2cc(C)c(Cl)cc2c1C
28.9 µg/mL (≈ 143 µM) | Cc1ccc(NC(=O)c2ccco2)nc1
35.5 µg/mL (≈ 108 µM) | COc1ccc(CCC(=O)Nc2ccc3c(c2)OCO3)cc1OC
> 56.3 µg/mL | COc1ccc(NC(=O)CN2C(=O)C(=O)N(C3CCCC3)C2=O)c(OC)c1

solubility kinetic | Structure (SMILES)
> 28.1 µg/mL | CC(=O)/C=C1/C(=O)Nc2ccccc21
8 µg/mL (≈ 25.3 µM) | Cc1ccc(C(=O)N[C@H](C(=O)NC2CCCCC2)C(C)C)cc1
> 47.9 µg/mL | COc1ccc(S(=O)Cc2ccc(C(=O)NC3CC3)o2)cc1 (stereo not given)
0.6 µg/mL (≈ 1.83 µM) | COc1ccc(NC(=O)NCCCCc2ccccc2)cc1OC
4.3 µg/mL (≈ 13.6 µM) | O=C(COC(=O)c1ccc(O)cc1)Nc1ccccc1[N+](=O)[O-]
5 µg/mL (≈ 18.5 µM) | CCCCCCCC(=O)NC1=NC(=O)C(C)(C)S1
> 42.7 µg/mL | Cc1ccc2[nH]cc(CCNC(=O)c3cccs3)c2c1
> 52 µg/mL | Cc1nnc(SCC(=O)NCC2CCCO2)n1Cc1ccccc1 (stereo not given)
> 45.7 µg/mL | CC(C)NC(=O)[C@H]1N2C(=O)c3ccccc3C2SC1(C)C (stereo not given in full)
> 44.9 µg/mL | CCOC(=O)C1=C(C)NC2=C(C(=O)OC2)C1c1ccccc1 (stereo not given)
> 69.5 µg/mL | CC(=O)Nc1ccc(S(=O)(=O)NCC(=O)OCC(=O)NCc2ccc3c(c2)OCO3)cc1
> 52.1 µg/mL | CC1(NC(=O)Nc2cccc(Br)c2)CCS(=O)(=O)C1 (stereo not given)
> 51.7 µg/mL | Cc1noc(C)c1CSCC(=O)Nc1cccc(C(F)(F)F)c1
45.8 µg/mL (≈ 148 µM) | Nc1nonc1C(=O)NCCNC(=O)c1cccc(Cl)c1
> 55.7 µg/mL | COc1cccc(NC(=O)CN(C)CC(=O)Nc2ccc3c(c2)OCO3)c1
52.2 µg/mL (≈ 144 µM) | O=C(NCCCNC(=O)c1cnccn1)c1ccc(Br)cc1
> 41.6 µg/mL | CC[C@H](CO)NCCN[C@H](CC)CO.Cl
47.3 µg/mL (≈ 143 µM) | CCOc1cc(C(=O)Nc2cccnc2)cc(OCC)c1OCC
> 47.9 µg/mL | Cc1cc(C)n2nc(SCC(=O)N3CCCC(C)C3)nc2n1 (stereo not given)
5.8 µg/mL (≈ 14.7 µM) | O=C(CN1C(=O)NC2(CCCCCC2)C1=O)Nc1ccc(Cl)c([N+](=O)[O-])c1

solubility kinetic | Structure (SMILES)
0.7 µg/mL (≈ 2.13 µM) | COc1cccc(OC)c1C(=O)Nc1sc2c(c1C#N)CCC2
> 49.2 µg/mL | O=C(O)CCN1C(=O)c2ccc(NC(=O)c3ccco3)cc2C1=O
> 44.6 µg/mL | Cc1ccc(C(=O)NCCNC(=O)Cc2ccccc2)cn1
> 48 µg/mL | COc1ccc(CC(=O)Nc2cc(Cl)ccc2C(=O)O)cc1
12.8 µg/mL (≈ 40.8 µM) | CC(C)C(=O)Nc1csc(C(F)(F)F)c1-c1ccccc1
31 µg/mL (≈ 99.9 µM) | CCCc1ccc(S(=O)(=O)NCC2CCCN2CC)cc1 (stereo not given)
45.1 µg/mL (≈ 144 µM) | Cc1ccc(OCC(=O)NCCNC(=O)c2ccncc2)cc1
> 34.8 µg/mL | O=C(Cc1ccccc1)NCC(=O)N1CCC1
> 38.9 µg/mL | CC(=O)c1ccc(NC(=O)Cc2ccsc2)cc1
2.7 µg/mL (≈ 9.36 µM) | O=C(CCc1ccccc1)NC(=S)NCc1ccco1
> 40.6 µg/mL | COC(=O)[C@H](CC(C)C)NC(=O)N1CCC(C)CC1
> 47.2 µg/mL | CCn1c(Oc2ccccc2C)nc2c1c(=O)n(C)c(=O)n2C
> 50.6 µg/mL | CCCN1CCN(S(=O)(=O)c2ccc3c(c2)CCC(=O)N3)CC1
48.8 µg/mL (≈ 149 µM) | Cc1cc(C)c(C)c(S(=O)(=O)NCCN2CCOCC2)c1C
> 50.6 µg/mL | CC1(C)CC(=O)C(C2=NC3(CCCCC3)Cc3ccccc32)=C(O)C1
30.6 µg/mL (≈ 85.2 µM) | CCOC(=O)CN1C(=O)C(=O)N(Cc2c(Cl)cccc2Cl)C1=O
> 33.8 µg/mL | O=C1COc2ccc(C(=O)CCl)cc2N1
> 46.8 µg/mL | COC(=O)CC1C(=O)NCCN1C(=O)c1c(F)cccc1F (stereo not given)
